Laboratory results taken from patent US10359433B2, “BAG3 as biochemical serum and tissue marker” (BIOUNIVERSA S.R.L., priority 2012, dated 2019).

Tests used:
[1] = tested on: J774 A.1 cells; assay: FACS competition assay: FITC-rBAG3 binding to J774 A.1 cells with BAG3 peptides or F(ab′)2 fragments; type: cell-based, murine; settings: 14 nM FITC-BAG3, 625 nM of BAG3 peptides
Procedure: (§1) We addressed the functional significance of BAG3 release by cardiomyocytes. […] Therefore we investigated whether BAG3 could interact with blood cells. […] BAG3 binding to macrophages was specifically impaired by competing BAG3 peptides or by BAG3-sequestering F(ab′)2 fragments from anti-BAG3 monoclonal antibodies (Table I). In particular J774 cells were incubated with 14 nM FITC-BAG3 protein and with 625 nM of BAG3 peptides (peptide 1, peptide 2, peptide 3, peptide 4 or scrambled peptide) or with 420 nM of F(ab′)2 fragments from anti-BAG3 monoclonal and polyclonal antibodies (mouse monoclonal AC1, AC2 and rabbit polyclonal TOS2). F(ab′)2 fragments from mouse IgG or F(ab′)2 fragments from rabbit IgG were used as a negative control.
Competition—J774 A.1 cells (2.5×105/100 μl) were incubated with 625 nM of BAG3 peptides (peptide 1, peptide 2, peptide 3, peptide 4 or scrambled peptide) or with 420 nM of F(ab′)2 fragments from anti-BAG3 monoclonal and polyclonal antibodies (mouse monoclonal AC1, AC2 and rabbit polyclonal TOS2) or F(ab′)2 fragments from mouse IgG or F(ab′)2 fragments from rabbit IgG in PBS containing 2% FBS+0.1% NaN3 for 30 min on ice. After incubation the cells were washing with PBS and then were incubated with of FITC-rBAG3 protein (14 nM), in PBS containing 2% FBS+0.1% NaN3 for 30 min at 4° C. in the dark. After washing with PBS, the cells were resuspended in PBS+2% FBS+0.1% NaN3 and analyzed by flow cytometer (BD Biosciences).

[2] = tested on: J774 A.1 cells; assay: FACS analysis of FITC-rBAG3 binding to J774 A.1 macrophages; type: cell-based, murine
Procedure: FIG. 3B: BAG3 binds macrophages. J774 A1 macrophages (1×10^6 cells/ml) were incubated with different concentration of Fitc-BAG3 protein (7, 14 and 70 nm). FITC-BSA (70 nM) was used as a negative control (grey). Cells fluorescence was analyzed by flow cytometry.
as §1
rBAG3 binding—J774 A.1 cells were blocked with 2% FBS+0.1% NaN3 in PBS for 15 min on ice and incubated (2.5×105/100 μl) with different concentration of FITC-rBAG3 protein (7, 14 and 70 nm) or FITC-BSA (70 nM) in PBS containing 2% FBS+0.1% NaN3 for 30 min at 4° C. in the dark. After washing with PBS, the cells were resuspended in PBS+2% FBS+0.1% NaN3 and analyzed with a FACScan (BD Biosciences) flow cytometer.

[3] = tested on: HCMa cells; assay: Confocal direct fluorescence, rBAG3-FITC binding to cardiomyocytes; type: cell-based, human; settings: FIG. 3A, result in words
Excerpt: FIG. 3A: Confocal microscopy analysis of direct fluorescence performed for detection of rBAG3-FITC binding to HCMa cells (a, b, c) and J774 A1 cells (d, e, f, g, h, i). BAG3 recombinant protein and purified BSA (albumin from bovine serum purchased from SIGMA) were conjugated to FITC using the FluoroTag FITC Conjugation Kit purchased from SIGMA following the manufacturer instructions. Equal amount of rBAG3-FITC (b, e) and BSA-FITC (h) proteins, calculated following the manufacturer instructions, were added in HCM and J774 A1 culture media with 0.1% NaN3 […] (a, d, g). Cells were analyzed by a Zeiss LSM confocal microscope. Merged images are shown in c, f and i.
We addressed the functional significance of BAG3 release by cardiomyocytes. […]
Cells were cultured on coverslips in six-well plates to 60-70% confluence and equal amount of rBAG3-FITC and BSA-FITC proteins were added in HCMa and J774 A1 culture media with 0.1% NaN3 for 1 h. […] Samples were analyzed using a confocal laser scanning microscope (Zeiss LSM confocal microscope, Germany). […] For production of figures, brightness and contrast of images were adjusted by taking care to leave a light cellular fluorescence background for visual appreciation of the lowest fluorescence intensity features and to help comparison among the different experimental groups. […]

[4] = tested on: J774 A1 macrophages; assay: Nitrite release from J774 A1 macrophages (Griess reaction); type: cell-based, murine; settings: J774 A1, 24 hours, FIG. 3C panel b
Procedure: FIG. 3C panel b—Analysis of nitrite release from J774 A1 macrophages incubated with BAG3. J774 A1 cells at 80% confluency were incubated with control medium, BSA, LPS or rBAG3 for 24 hours. 100 μl of supernatants from each sample were incubated with 100 μl of Griess reagent; the optical density at 550 nm (OD550) was measured with a Beckman DU62 spectrophotometer. Nitrite concentration was evaluated by comparing the OD550 of the sample with that of a standard curve of sodium nitrite. Nitrite content (NO2^−), a stable metabolite of NO released by cells in the culture supernatant, was measured in J774 A.1 cells (5×104/in 96-well microplates) treated with LPS (10 ng/ml) or with rBAG3 (7, 14 and 28 nM) or BSA (28 nM) for 24 hours in absence or presence of polymyxin B sulfate (Sigma-Aldrich, St. Louis, Mo., USA) 5 μg/ml. NO2^− amounts were measured by Griess reaction. Briefly, 100 μL of cell culture medium were mixed with 100 μL of Griess reagent—equal volumes of 1% (w:v) sulphanilamide in 5% (v:v) phosphoric acid and 0.1% (w:v) naphtylethylenediamine-HCl—and incubated at room temperature for 10 min, and then the absorbance was measured at 550 nm in a microplate reader Titertek (Dasit, Cornaredo, Milan, Italy). The amount of NO2- (as μM) in the samples was calculated from a sodium nitrite standard curve.

[5] = tested on: J774 A1 macrophages; assay: Cox-2 and iNOS levels in J774 A1 macrophages incubated with BAG3 (western blot); type: cell-based, murine; settings: BAG3-treated macrophages, 20 hours, FIG. 3C panel a
Procedure: FIG. 3C panel a—Analysis of Cox-2 and iNOS levels in J774 A1 macrophages incubated with BAG3. J774 A1 cells at 80% confluency were incubated with control medium, BSA, LPS or rBAG3, for 20 hours. Polymixin was added where indicated to verify that the effects of E. coli-derived rBAG3 were independent from the presence of contaminating endotoxin. Cox-2 and iNOS expression were analyzed in cell lysates by Western blotting. To explore functional consequences of BAG3 binding to macrophages, we tested the effect of recombinant BAG3 on the expression of inducible nitric oxide synthase (iNOS) and cyclooxygenase (Cox)-2 in the cells. As shown in FIG. 3C panel a the levels of those enzymes were enhanced in BAG3-treated macrophages. […] Soluble proteins were collected after a centrifugation at 10,000 g for 15 min and their amount was determined by Bradford assay (Bio-Rad, Hercules, Calif.). […] Immunoreactivity was detected by sequential incubation with horseradish peroxidase-conjugated secondary antibodies purchased from Pierce (Rockford, Ill.) and ECL detection reagents purchased from Amersham Life Sciences Inc. (Arlington Heights, Ill., USA).

[6] = tested on: J774 A1 macrophages; assay: IL-6 release from J774 A1 macrophages (ELISA); type: cell-based, murine; settings: J774 A1, FIG. 3C panel c
Procedure: FIG. 3C panel c—Analysis of IL-6 release from J774 A1 macrophages incubated with BAG3. J774 A1 cells at 80% confluency macrophages were incubated with control medium, BSA, LPS or recombinant BAG3 for 5 hours. BAG3 peptides (peptide 1, peptide 2, peptide 3, peptide 4 or scrambled peptide) 625 nM were added where indicated to verify their ability to block BAG3 activity. IL-6 production was measured in cell culture medium using an ELISA test. IL-6 concentration was evaluated by comparing the OD of the sample with that of a standard curve of recombinant IL-6. IL6 was measured in supernatant of J774 A.1 cells (5×10^4/in 96-well microplates) treated with LPS (10 ng/ml) or with rBAG3 (14 nM) or BSA (14 nM) for 10 or 20 hours in absence or presence of polymyxin B sulfate (5 μg/ml). After treatment 50 μL of cell culture medium were collected and analyzed in triplicate with a mouse IL6 Kit (eBioscience).

Substance | Competiton assays % inhibition [1] [%] | Competiton assays % of positive cells (±S.D.) [1] | further results
DKGKKNAGNAEDPHT (listed as Homo sapiens) [Pep3, 13] | 47.2 | 5.86 (±0.43) % | –
DRDPLPPGWEIKIDPQ (listed as Homo sapiens) [Pep1, 11] | 98.4 | 0.18 (±0.05) % | –
FITC-BSA: purified albumin from bovine serum conjugated to FITC, negative control | – | – | FITC-BSA % of positive cells (±S.D.) ([2]; J774 cells, flow cytometry, negative control): 4.04 (±0.06) %
FITC-rBAG3: BAG3 recombinant protein conjugated to FITC | – | – | binding to macrophages of the cell line J774 ([2]; FIG. 3B, result in words): bound; FITC-rBAG3 % of positive cells (±S.D.) ([2]; J774 cells, flow cytometry): 15.7 (±0.45) %; binding to the cardiomyocyte surface [3]: did not apparently bind
NPSSMTDTPGNPAAP (listed as Homo sapiens) [Pep4, 14] | 93.8 | 0.68 (±0.20) % | –
SSPKSVATEERAAPS (listed as Homo sapiens) [Pep2, 12] | 89.1 | 1.21 (±0.63) % | –
recombinant BAG3: E. coli-derived recombinant BAG3 protein; human BAG3 is SEQ ID NO:15 | – | – | release of nitrite [4]: induced the release; expression of inducible nitric oxide synthase (iNOS) and cyclooxygenase (Cox)-2 [5]: enhanced; release of interleukin (IL)-6 [6]: induced the release
